Laboratory results taken from patent publication US20250154126A1, “CRYSTALLINE FORM OF SULFUR-CONTAINING ISOINDOLINE DERIVATIVE” (JIANGSU HENGRUI PHARMACEUTICALS CO., LTD., priority 2022, published 2025).

Tests used:
Type in all cases: physicochemical
[1] = Hygroscopicity study of crystal forms (dynamic vapour sorption, 25° C.); details: for Crystal form after hygroscopicity test: two cycles
From the text: According to the “9103 Guideline for Hygroscopicity for Pharmaceuticals” in Part IV of the 2015 edition of the Chinese Pharmacopoeia, descriptions of hygroscopic characteristics and definitions of hygroscopic weight gain are as follows; • Deliquescent: Absorbs sufficient moisture to form a liquid; • Extremely hygroscopic: Hygroscopic weight gain is no less than 15%; • Hygroscopic: Hygroscopic weight gain is less than 15% but no less than 2%; • Slightly hygroscopic: Hygroscopic weight gain is less than 2% but no less than 0.2%; • Non-hygroscopic or nearly non-hygroscopic: Hygroscopic weight gain is less than 0.2%.
Compound of Formula (I) (Oct. 15, 2021, Nanjing) 03881 Using the Surface Measurement Systems advantage 2, at a temperature of 25° C., and starting at a humidity of 50%, the humidity range was examined from […] to 95%, with increments of 10%. The criterion for evaluation was that the mass change dM/dT at each gradient was less than 0.002%, TMAX was 360 min, and the process was cycled twice.

[2] = Influencing factor stability of crystal forms (light, high temperature, high humidity, 30 days); details: for change in purity under 60° C. and light: 60° C. and light (4500 Lux); for change in purity under 60° C. and light / physicochemical stability under high humidity: open; for physicochemical stability under high humidity: high humidity conditions of 75% and 92.5%; for crystal form after influencing factor experiments: light, high temperature, high humidity
Experimental: Each crystal form was spread out in an open exposure setup, and the stability of the samples under conditions of light (4500 Lux), high temperature (40° C., 60° C.), and high humidity (RH 75 RH 92.5%) was examined separately. The sampling inspection period was 30 days.

[3] = Long-term/accelerated stability of crystal forms (25° C. 60% RH and 40° C. 75% RH); details: for physical and chemical stability, long-term accelerated conditions: 25° C. 60% RH and 40° C. 75% RH, six months
Experimental: The crystal forms D, E, Q, and U of the compound of formula (I) were respectively placed under conditions of 25° C. with 60% RH and 40° C. with 75% RH to evaluate their stability.

[4] = 92.5% RH, 30 days, open exposure
[5] = light 4500 Lux, 30 days, open exposure

N#Cc1ccc(N2CCC(Sc3ccc(COc4cccc5c4CN([C@H]4CCC(=O)NC4=O)C5=O)cn3)CC2)c(F)c1 [Crystal form Q, (S)-4-(4-((5-(((2-(2,6-dioxopiperidin-3-yl)-1-oxoisoindolin-4-yl)oxy)methyl)pyridin-2-yl)thio)piperidin-1-yl)-3-fluorobenzonitrile]
Hygroscopic weight change 0.0% RH-95.0% RH [1]: 0.67%
Hygroscopic weight change 20% RH-80% RH [1]: 0.24%
Hygroscopicity class (20% RH-80% RH) [1]: (slightly hygroscopic)
Crystal form after hygroscopicity test [1]: Untransformed
Color and character ([2]; 40° C., 7 days, open exposure): White solid
Purity % ([2]; 40° C., 7 days, open exposure): 99.5%
Color and character ([2]; 40° C., 14 days, open exposure): White solid
Purity % ([2]; 40° C., 14 days, open exposure, listed as Free crystal form Q): 99.4%
Color and character ([2]; 40° C., 30 days, open exposure): White solid
Purity % ([2]; 40° C., 30 days, open exposure, listed as Free crystal form Q): 99.1%
change in purity under 60° C. and light ([2]; 30 days): slight decrease in purity
Color and character ([2]; 60° C., 7 days, open exposure): White solid
Purity % ([2]; 60° C., 7 days, open exposure, listed as Free crystal form Q): 99.3%
Color and character ([2]; 60° C., 14 days, open exposure): White solid
Purity % ([2]; 60° C., 14 days, open exposure, listed as Free crystal form Q): 98.9%
Color and character ([2]; 60° C., 30 days, open exposure): White solid
Purity % ([2]; 60° C., 30 days, open exposure, listed as Free crystal form Q): 98.5%
Color and character ([2]; 75% RH, 7 days, open exposure): White solid
Purity % ([2]; 75% RH, 7 days, open exposure): 99.6%
Color and character ([2]; 75% RH, 14 days, open exposure): White solid
Purity % ([2]; 75% RH, 14 days, open exposure, listed as Free crystal form Q): 99.6%
Color and character ([2]; 75% RH, 30 days, open exposure): White solid
Purity % ([2]; 75% RH, 30 days, open exposure, listed as Free crystal form Q): 99.6%
Color and character ([2]; 92.5% RH, 14 days, open exposure): White solid
Purity % ([2]; 92.5% RH, 14 days, open exposure, listed as Free crystal form Q): 99.6%
Color and character [2, 4]: White solid
Purity % ([2]; 92.5% RH, 30 days, open exposure, listed as Free crystal form Q): 99.5%
Color and character ([2]; Onset, 0 days): White solid
Purity % ([2]; Onset, 0 days, listed as Free crystal form Q): 99.6%
physicochemical stability under high humidity ([2]; 30 days): good physicochemical stability
Color and character ([2]; light 4500 Lux, 7 days, open exposure): White solid
Purity % ([2]; light 4500 Lux, 7 days, open exposure, listed as Free crystal form Q): 99.5%
Color and character ([2]; light 4500 Lux, 14 days, open exposure): White solid
Purity % ([2]; light 4500 Lux, 14 days, open exposure, listed as Free crystal form Q): 98.8%
Color and character [2, 5]: White solid
Purity % ([2]; light 4500 Lux, 30 days, open exposure, listed as Free crystal form Q): 93.9%
crystal form after influencing factor experiments ([2]; 30 days): remain unchanged
physical and chemical stability, long-term accelerated conditions [3]: good physical and chemical stability
Purity % 1 month ([3]; 25° C., 60% RH): 99.5%
Purity % 2 months ([3]; 25° C., 60% RH): 99.5%
Purity % 3 months ([3]; 25° C., 60% RH): 99.5%
Purity % 1 month ([3]; 40° C., 75% RH): 99.5%
Purity % 2 months ([3]; 40° C., 75% RH): 99.4%
Purity % 3 months ([3]; 40° C., 75% RH): 99.4%
Purity % 6 months ([3]; 40° C., 75% RH): 99.1%
Purity % Onset [3]: 99.6%

N#Cc1ccc(N2CCC(Sc3ccc(COc4cccc5c4CN([C@H]4CCC(=O)NC4=O)C5=O)cn3)CC2)c(F)c1 [Crystal form D, (S)-4-(4-((5-(((2-(2,6-dioxopiperidin-3-yl)-1-oxoisoindolin-4-yl)oxy)methyl)pyridin-2-yl)thio)piperidin-1-yl)-3-fluorobenzonitrile]
Hygroscopic weight change 0.0% RH-95.0% RH [1]: 2.24%
Hygroscopic weight change 20% RH-80% RH [1]: 1.26%
Hygroscopicity class (20% RH-80% RH) [1]: (slightly hygroscopic)
Crystal form after hygroscopicity test [1]: Untransformed
Color and character ([2]; 40° C., 9 days, open exposure): White solid
Purity % ([2]; 40° C., 9 days, open exposure, listed as Free crystal form D): 97.3%
Color and character ([2]; 40° C., 15 days, open exposure): White solid
Purity % ([2]; 40° C., 15 days, open exposure, listed as Free crystal form D): 96.7%
Color and character ([2]; 40° C., 30 days, open exposure): White solid
Purity % ([2]; 40° C., 30 days, open exposure, listed as Free crystal form D): 95.8%
change in purity under 60° C. and light ([2]; 30 days): slight decrease in purity
Color and character ([2]; 60° C., 9 days, open exposure): White solid
Purity % ([2]; 60° C., 9 days, open exposure, listed as Free crystal form D): 96.6%
Color and character ([2]; 60° C., 15 days, open exposure): White solid
Purity % ([2]; 60° C., 15 days, open exposure, listed as Free crystal form D): 95.8%
Color and character ([2]; 60° C., 30 days, open exposure): White solid
Purity % ([2]; 60° C., 30 days, open exposure, listed as Free crystal form D): 93.9%
Color and character ([2]; 75% RH, 9 days, open exposure): White solid
Purity % ([2]; 75% RH, 9 days, open exposure, listed as Free crystal form D): 97.8%
Color and character ([2]; 75% RH, 15 days, open exposure): White solid
Purity % ([2]; 75% RH, 15 days, open exposure, listed as Free crystal form D): 97.7%
Color and character ([2]; 75% RH, 30 days, open exposure): White solid
Purity % ([2]; 75% RH, 30 days, open exposure, listed as Free crystal form D): 97.9%
Color and character ([2]; 92.5% RH, 9 days, open exposure): White solid
Purity % ([2]; 92.5% RH, 9 days, open exposure, listed as Free crystal form D): 97.8%
Color and character ([2]; 92.5% RH, 15 days, open exposure): White solid
Purity % ([2]; 92.5% RH, 15 days, open exposure, listed as Free crystal form D): 97.9%
Color and character [2, 4]: White solid
Purity % ([2]; 92.5% RH, 30 days, open exposure, listed as Free crystal form D): 97.8%
Color and character ([2]; Onset, 0 days): White solid
Purity % ([2]; Onset, 0 days, listed as Free crystal form D): 97.9%
physicochemical stability under high humidity ([2]; 30 days): good physicochemical stability
Color and character ([2]; light 4500 Lux, 9 days, open exposure): White solid
Purity % ([2]; light 4500 Lux, 9 days, open exposure, listed as Free crystal form D): 97.3%
Color and character ([2]; light 4500 Lux, 15 days, open exposure): White solid
Purity % ([2]; light 4500 Lux, 15 days, open exposure, listed as Free crystal form D): 96.8%
Color and character [2, 5]: White solid
Purity % ([2]; light 4500 Lux, 30 days, open exposure, listed as Free crystal form D): 95.4%
crystal form after influencing factor experiments ([2]; 30 days): remain unchanged
physical and chemical stability, long-term accelerated conditions [3]: good physical and chemical stability
Purity % 1 month ([3]; 25° C., 60% RH): 97.8%
Purity % 2 months ([3]; 25° C., 60% RH): 97.8%
Purity % 3 months ([3]; 25° C., 60% RH): 97.8%
Purity % 1 month ([3]; 40° C., 75% RH): 97.8%
Purity % 2 months ([3]; 40° C., 75% RH): 97.8%
Purity % 3 months ([3]; 40° C., 75% RH): 97.7%
Purity % 6 months ([3]; 40° C., 75% RH): 97.6%
Purity % Onset [3]: 97.9%
